These results are taken from patent US20200385777A1, “METHOD FOR DETERMINING DYSBIOSIS IN THE INTESTINAL MICROBIOME” (EVOLVE BIOSYSTEMS, INC., priority 2018, published 2020).

The subject of one assay is isolate 7005-5. Nature of the assay: MIC microdilution, fecal isolate 7005-5. Format: cell-based. To be noted: for MIC: read-out: Minimum inhibitory concentration (MIC). The procedure: (§1) Whole genome sequencing and assembly of bacterial isolates. […] Selected isolates were grown in 20 ml LB broth overnight at 37° C. Cultures were aliquoted into 1 ml aliquots, centrifuged at 10,000×g for 5 min and the supernatant was removed. Cell pellets were resuspended in DNA/RNA Shield solution provided in DNA/RNA Shield Microbe Lysis tubes (Zymo Research, Irvine Calif.) and transferred into lysis tubes. High-molecular weight genomic DNA was extracted using the Quick-DNA Fecal/Soil
(§2) Minimal inhibitory concentrations. […] Carbenicillin was added to growth media for transformed strains at a concentration of 100 μg/ml. The microtiter plates were incubated for 24 h at 37° C. The optical density (OD) of each well was measured at 600 nm using an automated microtiter plate reader (BIO-TEK, Synergy HT). The MIC corresponded to the lowest antibiotic concentration at which no growth was detected. All tests were performed in triplicate

A further assay concerns isolate 7005-9. Nature of the assay: MIC microdilution, fecal isolate 7005-9. The format is cell-based. To be noted: for MIC: read-out: Minimum inhibitory concentration (MIC). The procedure: as §1, §2
(In general: In broth dilution the organism is exposed to a series of concentrations in liquid medium.)

For a further assay, the system named is isolate 7005-11. Nature of the assay: MIC microdilution, fecal isolate 7005-11. The settings on record: for MIC: read-out: Minimum inhibitory concentration (MIC). Format: cell-based. On the procedure: as §1, §2
The test system of the next assay is isolate 7005-13. Nature of the assay: MIC microdilution, fecal isolate 7005-13. Format: cell-based. The settings on record: for MIC: read-out: Minimum inhibitory concentration (MIC). On the procedure: as §1, §2
The next assay relates to isolate 7084-1. Nature of the assay: MIC microdilution, fecal isolate 7084-1. To be noted: for MIC: read-out: Minimum inhibitory concentration (MIC). Format: cell-based. The procedure:
as §1, §2

The next assay deals with isolate 7084-4. Nature of the assay: MIC microdilution, fecal isolate 7084-4. The format is cell-based. To be noted: for MIC: read-out: Minimum inhibitory concentration (MIC). On the procedure: as §1, §2
A further assay deals with isolate 7084-5. The experiment in a line: MIC microdilution, fecal isolate 7084-5. The format is cell-based. To be noted: for MIC: read-out: Minimum inhibitory concentration (MIC). The procedure: as §1, §2
A further assay concerns isolate 7122-1. Nature of the assay: MIC microdilution, fecal isolate 7122-1. Format: cell-based. To be noted: for MIC: read-out: Minimum inhibitory concentration (MIC). The procedure: as §1, §2
In another assay the test system is isolate 7122-2. Nature of the assay: MIC microdilution, fecal isolate 7122-2. To be noted: for MIC: read-out: Minimum inhibitory concentration (MIC). Format: cell-based. The procedure: as §1, §2
Another assay has as its system isolate 7122-9. Nature of the assay: MIC microdilution, fecal isolate 7122-9. Format: cell-based. The settings on record: for MIC: read-out: Minimum inhibitory concentration (MIC). The procedure:
as §1, §2

Another assay has as its system isolate 7174-2. Nature of the assay: MIC microdilution, fecal isolate 7174-2. Format: cell-based. The settings on record: for MIC: read-out: Minimum inhibitory concentration (MIC). The procedure:
as §1, §2

For a further assay, the system named is isolate 7174-4. The experiment in a line: MIC microdilution, fecal isolate 7174-4. To be noted: for MIC: read-out: Minimum inhibitory concentration (MIC). The format is cell-based. On the procedure: as §1, §2
The test system of a further assay is isolate 7174-5. The experiment in a line: MIC microdilution, fecal isolate 7174-5. The format is cell-based. To be noted: for MIC: read-out: Minimum inhibitory concentration (MIC). On the procedure:
as §1, §2

The next assay has as its system DH5α. The experiment in a line: MIC microdilution, DH5α. Format: cell-based. The settings on record: for MIC: read-out: Minimum inhibitory concentration (MIC). The procedure: as §2
For assay [1], the system named is bacteria isolated from EMB agar from fecal samples of control infants. The experiment in a line: MIC, fecal isolates of control infants taken together. Format: cell-based, Escherichia coli; Raoultella planticola. To be noted: all fecal isolates. The procedure: To confirm the presence of full length, functional ARGs and the relationship of these ARGs to individual resistance phenotypes at the strain level, bacteria isolated from EMB agar were obtained from the fecal samples of four representative control infants. Whole-genome sequencing of twelve isolates was performed on a MinION sequencer and assembly led to an average coverage of 18× (min 5.4; max 40). Taxonomic identification was confirmed via BLASTN against the NCBI nucleotide database (https://www.ncbl.nlrn.nih.gov/nucleotide) showing three isolates classified as Raoultella planticola and the remaining nine as Escherichia coli. The CARD protein sequences collection was used as query against the twelve assembled isolates via TBLASTN. […] The latter genes are likely absent on the E. coli and R. planticola genomes and present on different species.
Whole genome sequencing and assembly of bacterial isolates. […]
Minimal inhibitory concentrations. Minimal inhibitory concentrations (MICs) were determined according to Clinical and Laboratory Standards Institute guidelines for microdilution susceptibility testing {Wikler, 2006}. […] The optical density (OD) of each well was measured at 600 nm using an automated microtiter plate reader (BIO-TEK, Synergy HT). The MIC corresponded to the lowest antibiotic concentration at which no growth was detected. […]

With `CC1(C)S[C@@H]2[C@H](NC(=O)[C@H](N)c3ccccc3)C(=O)N2[C@H]1C(=O)O` [Ampicillin], the “Resistant/Susceptible according to breakpoints for clinical resistance” value (“Resistant/Susceptible according” for short) with isolate 7005-5 (isolate 7005-5), in the assay with isolate 7005-9 (isolate 7005-9), in the assay with isolate 7005-11 (isolate 7005-11), in the assay on isolate 7005-13 (isolate 7005-13), in the assay on isolate 7084-1 (isolate 7084-1) and in the assay on isolate 7084-4 (isolate 7084-4) was “(R)” each time. In addition, the “Resistant/Susceptible according” value is reported as “(R)” in the assay on isolate 7084-5 (isolate 7084-5); “(S)” with isolate 7122-1 (isolate 7122-1); “(S)” in the assay with isolate 7122-2 (isolate 7122-2); “(S)” in the assay with isolate 7122-9 (isolate 7122-9); “(R)” with isolate 7174-2 (isolate 7174-2); “(R)” in the assay on isolate 7174-4 (isolate 7174-4). Besides, the “Resistant/Susceptible according” value in the assay on isolate 7174-5 (isolate 7174-5) is recorded as “(R)”; in the assay on DH5α it was “(S)”. For the same molecule, the MIC in the assay on isolate 7005-5 amounted to 128 µg/mL; with isolate 7005-9, 128 µg/mL; in the assay on isolate 7005-11 it was 64 µg/mL; in the assay on isolate 7005-13, 64 µg/mL; in the assay with isolate 7084-1 it was 512 µg/mL; in the assay on isolate 7084-4, 512 µg/mL. The MIC in the assay on isolate 7084-5 amounted to 512 µg/mL; with isolate 7122-1 it was 16 µg/mL; with isolate 7122-2, 16 µg/mL; with isolate 7122-9, 16 µg/mL; in the assay on isolate 7174-2 it was 512 µg/mL; in the assay with isolate 7174-4, 512 µg/mL. Also, the MIC with isolate 7174-5 was 512 µg/mL; in the assay with DH5α, 4 µg/mL. For the same molecule, the “Resistance among the isolates” value in [1] is given as “With the exception of three isolates obtained from the same infant (7174), all of the isolates displayed resistance”.
On to `Cc1nnc(SCC2=C(C(=O)O)N3C(=O)[C@@H](NC(=O)Cn4cnnn4)[C@H]3SC2)s1` [Cefazolin], for which the MIC came out at 64 µg/mL in the assay on isolate 7005-5; 64 µg/mL with isolate 7005-9; 64 µg/mL in the assay with isolate 7005-11; 64 µg/mL in the assay with isolate 7005-13; 32 µg/mL in the assay with isolate 7084-1; 32 µg/mL in the assay with isolate 7084-4. The MIC came to 32 µg/mL in the assay on isolate 7084-5; 8 µg/mL in the assay with isolate 7122-1; 8 µg/mL with isolate 7122-2; 8 µg/mL with isolate 7122-9; 64 µg/mL with isolate 7174-2; 512 µg/mL with isolate 7174-4. Moreover, the MIC is 512 µg/mL with isolate 7174-5 and under 4 µg/mL with DH5α.
Take `CO/N=C(\C(=O)N[C@@H]1C(=O)N2C(C(=O)[O-])=C(C[N+]3(C)CCCC3)CS[C@H]12)c1csc(N)n1` [Cefepime]: the MIC was 16 µg/mL with isolate 7005-5; 64 µg/mL with isolate 7005-9; 512 µg/mL in the assay with isolate 7005-11; 512 µg/mL with isolate 7005-13; under 4 µg/mL in the assay on isolate 7084-1; under 4 µg/mL with isolate 7084-4. Besides, the MIC in the assay with isolate 7084-5, in the assay with isolate 7122-1, with isolate 7122-2, in the assay with isolate 7122-9, in the assay with isolate 7174-2 and in the assay on isolate 7174-4 was under 4 µg/mL in each case. Besides, the MIC with isolate 7174-5 and in the assay with DH5α was under 4 µg/mL throughout.
Turning to `CO/N=C(\C(=O)N[C@@H]1C(=O)N2C(C(=O)O)=C(COC(C)=O)CS[C@H]12)c1csc(N)n1` [Cefotaxime], the “Resistant/Susceptible according” value in the assay on isolate 7005-5 (isolate 7005-5) was “(R)”; in the assay on isolate 7005-9 (isolate 7005-9), “(R)”; with isolate 7005-11 (isolate 7005-11), “(R)”; with isolate 7005-13 (isolate 7005-13), “(R)”; in the assay with isolate 7084-1 (isolate 7084-1), “(S)”; in the assay with isolate 7084-4 (isolate 7084-4), “(S)”. Besides, the “Resistant/Susceptible according” value in the assay with isolate 7084-5 (isolate 7084-5), in the assay on isolate 7122-1 (isolate 7122-1), in the assay on isolate 7122-2 (isolate 7122-2), in the assay with isolate 7122-9 (isolate 7122-9), in the assay on isolate 7174-2 (isolate 7174-2) and in the assay on isolate 7174-4 (isolate 7174-4) was “(S)” in each case. For the same molecule, the “Resistant/Susceptible according” value in the assay with isolate 7174-5 (isolate 7174-5) and in the assay on DH5α was “(S)” each time. Further, the MIC with isolate 7005-5 was 32 µg/mL; in the assay on isolate 7005-9, 128 µg/mL; in the assay with isolate 7005-11, 512 µg/mL; in the assay on isolate 7005-13, 512 µg/mL; in the assay on isolate 7084-1, under 4 µg/mL; with isolate 7084-4, under 4 µg/mL. Moreover, the MIC with isolate 7084-5, with isolate 7122-1, with isolate 7122-2, in the assay with isolate 7122-9, with isolate 7174-2 and with isolate 7174-4 was under 4 µg/mL each time. For the same molecule, the MIC with isolate 7174-5 and with DH5α was under 4 µg/mL throughout.
Turning to `CN(C)[C@@H]1C(O)=C(C(N)=O)C(=O)[C@@]2(O)C(O)=C3C(=O)c4c(O)cccc4[C@@](C)(O)[C@H]3C[C@@H]12` [Tetracycline], the MIC was 16 µg/mL in the assay on isolate 7084-1; 16 µg/mL in the assay with isolate 7084-4; 16 µg/mL in the assay on isolate 7084-5; 16 µg/mL with isolate 7122-1; 8 µg/mL in the assay on isolate 7122-2; 8 µg/mL in the assay with isolate 7122-9. Moreover, the MIC with isolate 7174-2 was 64 µg/mL; with isolate 7174-4 it was 128 µg/mL; in the assay with isolate 7174-5, 64 µg/mL; in the assay with DH5α it was under 4 µg/mL.
As to Gentamicin, the “Minimum inhibitory concentration (MIC)” value in the assay with isolate 7005-5 (isolate 7005-5), with isolate 7005-9 (isolate 7005-9), in the assay on isolate 7005-11 (isolate 7005-11), in the assay on isolate 7005-13 (isolate 7005-13), with isolate 7084-1 (isolate 7084-1) and in the assay with isolate 7084-4 (isolate 7084-4) was under 4 µg/mL in each case. Besides, the “Minimum inhibitory concentration (MIC)” value in the assay on isolate 7084-5 (isolate 7084-5), in the assay with isolate 7122-1 (isolate 7122-1), with isolate 7122-2 (isolate 7122-2), with isolate 7122-9 (isolate 7122-9), in the assay with isolate 7174-2 (isolate 7174-2) and in the assay with isolate 7174-4 (isolate 7174-4) was under 4 µg/mL each time. Further, the “Minimum inhibitory concentration (MIC)” value in the assay with isolate 7174-5 (isolate 7174-5) and in the assay with DH5α was under 4 µg/mL in each case. Also, the “Resistant/Susceptible according” value in the assay with isolate 7005-5 (isolate 7005-5), with isolate 7005-9 (isolate 7005-9), in the assay with isolate 7005-11 (isolate 7005-11), in the assay with isolate 7005-13 (isolate 7005-13), in the assay with isolate 7084-1 (isolate 7084-1) and in the assay on isolate 7084-4 (isolate 7084-4) was “(S)” each time. The “Resistant/Susceptible according” value in the assay on isolate 7084-5 (isolate 7084-5), with isolate 7122-1 (isolate 7122-1), in the assay on isolate 7122-2 (isolate 7122-2), in the assay with isolate 7122-9 (isolate 7122-9), in the assay on isolate 7174-2 (isolate 7174-2) and with isolate 7174-4 (isolate 7174-4) was “(S)” in each case. Moreover, the “Resistant/Susceptible according” value with isolate 7174-5 (isolate 7174-5) and in the assay with DH5α was “(S)” in each case. Further, the “Resistance among the isolates” value in assay [1] was “No resistance”.
